The record followed here is ChEMBL document CHEMBL1201862, “PubChem BioAssay data set” (2004).

Some test systems named below: Malme-3M; A498; COLO 205; SNB-19; A549; CCRF-CEM; 786-0; MDA-MB-435; K562; DU-145; MCF7; EKVX; SK-MEL-28; SN12C; NCI-H460; HL-60; OVCAR-8; SK-OV-3; CAKI-1; SF-268.
Holding throughout (assay): NCI tumour cell line growth inhibition, 48 h

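Tested at 5 concentrations; 48 h exposure; 96-well plates; endpoints linearly interpolated, else capped at highest concentration. GI50: concentration for 50% inhibition of growth.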 Active and inactive are the calls of the source. Cut-off read from the data, not from the text of the source: active = GI50 up to about 1.1 µM and inactive = higher.

Regarding `CN(C)CCOc1ccc2[nH]c(C(=O)N3CC(CCl)c4c3cc(NC(=O)OCc3ccc([N+](=O)[O-])cc3)c3ccccc43)cc2c1` (stereo not given), the GI50 was 1.47 µM (inactive) in the experiment on Malme-3M; 1.85 µM (inactive) in the experiment with A498; 1.64 µM (inactive) in the experiment on COLO 205; 1.71 µM (inactive) in the experiment on SNB-19; 1.24 µM (inactive) in the experiment with A549; 0.162 µM (active) with CCRF-CEM. The GI50 is 0.979 µM (active) with 786-0; 1.6 µM (inactive) in the experiment with MDA-MB-435; 0.237 µM (active) in the experiment on K562; 0.552 µM (active) with DU-145; 0.211 µM (active) in the experiment with MCF7; 1.73 µM (inactive) in the experiment with EKVX. The GI50 is 1.64 µM (inactive) with SK-MEL-28; 1.5 µM (inactive) in the experiment on SN12C; 4.05 µM (inactive) in the experiment on NCI-H460; 0.269 µM (active) in the experiment with HL-60; 0.483 µM (active) in the experiment with OVCAR-8; 1.66 µM (inactive) with SK-OV-3. Besides, the values for the GI50 in the experiment on CAKI-1 and in the experiment with SF-268 were 1.18 µM (inactive) and 1.37 µM (inactive), respectively.

On to `CC(C)(C)OC(=O)NCCC1SC2C=CC1C2` (stereo not given), for which the GI50 with Malme-3M, with A498, with COLO 205, in the experiment with SNB-19, in the experiment with A549 and in the experiment on CCRF-CEM was > 100 µM (inactive) in each case. The GI50 in the experiment with 786-0, in the experiment on MDA-MB-435, with K562, in the experiment on DU-145, in the experiment with MCF7 and in the experiment with EKVX was > 100 µM (inactive) in each case. Moreover, the GI50 in the experiment with SK-MEL-28, in the experiment with SN12C, with NCI-H460, in the experiment with HL-60, with OVCAR-8 and in the experiment on SK-OV-3 was > 100 µM (inactive) each time. Moreover, the GI50 in the experiment on CAKI-1 and in the experiment with SF-268 was > 100 µM (inactive) throughout.
